ChEMBL document CHEMBL1123738, “Kinetics of solvolysis and muscarinic actions of an N-methyl-N-(2-bromoethyl)amino analogue of oxotremorine” (J Med Chem, 1987)

What was measured:
[1] = First-order rate constant for cyclization of the free base; format: ADME
[2] = Rate of cyclization of compound at 22 degree Celsius and pH 5.46; format: ADME
[3] = Half-life of compound at 22 degree Celsius and pH 4.24 was determined; format: ADME
[4] = Rate of cyclization of compound at 22 degree Celsius and pH 7.67; format: ADME
[5] = Rate of cyclization of compound at 22 degree Centigrade and pH 6.25; format: ADME
[6] = Rate of cyclization of compound at 22 degree Celsius and pH 7.29; format: ADME
[7] = Rate of cyclization of compound at 22 degree Celsius and pH 4.24; format: ADME
[8] = Half-life of compound at 22 degree Celsius and pH 6.25 was determined; format: ADME
[9] = Half-life of compound at 22 degree Celsius and pH 5.46 was determined; format: ADME
[10] = Apparent first-order rate constant for bromide ion release at 37 degree Celsius and pH 7.3; format: ADME
[11] = Half-life of compound at 22 degree Celsius and pH 7.29 was determined; format: ADME
[12] = Equipotent potent ratio relative to carbachol (nicotinic activity); format: ADME
[13] = pKa value of compound was determined; format: physicochemical
[14] = Half-life of compound at 22 degree Centigrade and pH 7.67 was determined; format: ADME
[15] = Rate of cyclization, as measured by rate of formation of compound at 22 degree Centigrade; format: ADME
[16] = Rate of cyclization, as measured by rate of formation of compound at 37 degree Centigrade; format: ADME
[17] = Rate of hydrolysis of compound at pH 7.3 and 22 degree Centigrade; format: ADME; conditions: buffer
[18] = Rate of hydrolysis of compound at pH 7.3 and 37 degree Centigrade; format: ADME; conditions: buffer

CN(CC#CCN1CCCC1=O)CCBr
k0 [1]: 0.146 min⁻¹ | k1 [2]: 0.0678 min⁻¹ | half-life [3]: 261 min | k1 [4]: 0.1512 min⁻¹ | k1 [5]: 0.1146 min⁻¹ | k1 [6]: 0.1406 min⁻¹ | k1 [7]: 0.00266 min⁻¹ | half-life [8]: 6.1 min | half-life [9]: 10.2 min | Rate constant [10]: 0.85 min⁻¹ | half-life [11]: 4.9 min | Molar ratio [12]: 12.3 | pKa [13]: 5.6 | half-life [14]: 4.6 min

C[N+]1(CC#CCN2CCCC2=O)CC1.[Br-]
k1 [15]: 0.145 min⁻¹ | k1 [16]: 0.845 min⁻¹ | k2 [17]: 0.00829 min⁻¹ | k2 [18]: 0.0395 min⁻¹
